# Assay results from patent US7402433B2, “Method of in-vitro micropropagation of Piper longum plants” (Reliance Life Sciences Pvt. Ltd., priority 2003, dated 2008).
# Key:
# Format in all cases: cell-based
# [1] = test system: root segments (rhizogenic tissues) of Piper longum; experiment: Shoot bud proliferation from root segments on MS medium with BAP; conditions: 23° C.
# Protocol: Sub-culturing the 18 root segments separately onto MS basal medium supplemented with Benzyl Amino Purine (BAP) (0.5-3 mg/L), 2-4% sucrose, 100 mg/l myo-inositol and 0.7-1.2% agar for solidifying the medium.
# Cultures were kept at 23° C. +/−1° C. under 2000-4000 Lux light intensity for a photoperiod of 16 hours followed by a dark period of 8 hours.
# Each segment produced 50-55 adventitious shoot buds i.e. (18×50=900 shoot buds).
# [2] = test system: regenerated shoots of Piper longum; experiment: Rooting of regenerated shoots on MS medium with IBA; conditions: IBA 0.1-3.1 mg/L
# Protocol: 2.5-3 cm long shoots with 2-3 nodes were carefully separated from the culture clumps using a sterile scalpel under LF.
# Sub-culturing 10 separated shoots in a wide mouthed bottle containing MS basal medium fortified with Indole Butyric Acid (IBA) (1-3 mg/L), 2-4% sucrose, 100 mg/L myo-inositol and 0.7-1.2% agar.
# Rooting of the regenerated shoots under reduced light 1000-3000 Lux for 28 days. Photoperiod and temperatures remains the same as before.
# [3] = test system: lateral bud (meristematic) explant of Piper longum; experiment: Induction of rhizogenesis from lateral bud explants on culture initiation medium (MS + NAA)
# Protocol: Preparing culture initiation medium by using MS basal medium described by Murashige and Skoog in 1968. To the MS basal medium, sucrose (2-4%), agar powder (0.7-1.2%), 100 mg/L myo-inositol and Naphthalene Acetic Acid (NAA) (0.01-0.5 mg/L) was added. This medium was autoclaved at 15 psi for 20 min and then cooled to solidify at room temperature.
# Using sterilized forceps, each isolated and surface sterilized lateral bud was inoculated in a test tube containing 15 ml of above-mentioned medium; by placing the cut end of the lateral buds touching the medium.
# Incubating the inoculated explants in dark at 23° C. +/−1° C. for 7-15 days. By this time, 6-7 root primordia appear from the basal cut end of all the lateral buds.
# Transferring incubated cultures in light having 2000-4000 lux light intensity.
# A photoperiod of 16 hours was provided followed by a dark period of 8 hours daily.
# Allowing each root to grow to an average size of […] in 45 days.
# A lateral bud (meristematic) explant from any position of a young or mature plant of Piper longum was taken and cultured in an MS basal medium supplemented with sucrose (2-4%), NAA (0.1-0.5 mg/l) and gelled with agar (0.7-1.2%). These were incubated in dark for 10 days at 23° C.±1° C. and transferred to a light intensity of 1000-3000 lux for 16 Hrs. followed by 8 Hrs. dark period resulting into rhizogenesis, producing 6-7 root like organs, by direct organogenosis from meristematic tissues of lateral buds, which grew up to 1.5 cm in length by 45th day of isolation.
compound,measurement,setting,value
"c1ccc(CNc2ncnc3[nH]cnc23)cc1 [BAP, Benzylaminopurine]",adventitious shoot buds produced per root segment,"[1]; BAP 0.5-3 mg/L in MS basal medium, 2000-4000 Lux, 16 hours photoperiod",50-55
same,adventitious shoot bud formation,"[1]; BAP 0.5-3 mg/L, 0.5 cm long root segments, 2000-4000 lux, 16 Hrs. light/8 Hrs. dark",adventitious shoot bud formation from all the root segments
Indole Butyric Acid [IBA],response of separated shoots (rooting),[2],All separated shoots were responsive
same,root system from the basal cut ends of shoots,[2]; in 4 weeks time,produced healthy root system
Naphthalene Acetic Acid [NAA],root primordia appearing from the basal cut end of the lateral buds,"[3]; NAA 0.01-0.5 mg/L in MS basal medium, dark, 23° C. +/−1° C., 7-15 days",6-7
same,root like organs produced by direct organogenesis (rhizogenesis),"[3]; NAA 0.1-0.5 mg/l in MS basal medium, 10 days dark at 23° C., then 1000-3000 lux 16 Hrs./8 Hrs. dark",6-7
same,length of root like organs,"[3]; NAA 0.1-0.5 mg/l, by 45th day of isolation",up to 1.5 cm
